In PubChem BioAssay (NCI):
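Tested at 5 concentrations; 48 h exposure; 96-well plates; endpoints linearly interpolated, else capped at highest concentration. TGI denotes the concentration required for complete inhibition of growth.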

How the values were obtained:
Assay in all cases: NCI tumour cell line growth inhibition, 48 h
MALME-3M melanoma = test system: MALME-3M melanoma
NCI-H226 lung = test system: NCI-H226 lung
SN12C renal = test system: SN12C renal
NCI-H460 lung = test system: NCI-H460 lung
SK-OV-3 ovarian = test system: SK-OV-3 ovarian
OVCAR-3 ovarian = test system: OVCAR-3 ovarian
HOP-62 NSCLC = test system: HOP-62 NSCLC
OVCAR-5 ovarian = test system: OVCAR-5 ovarian
MCF7 breast = test system: MCF7 breast
LOX IMVI melanoma = test system: LOX IMVI melanoma
SR leukemia = test system: SR leukemia
DU-145 prostate = test system: DU-145 prostate
NCI-H23 lung = test system: NCI-H23 lung
COLO 205 colon = test system: COLO 205 colon
T-47D breast = test system: T-47D breast
NCI-H522 lung = test system: NCI-H522 lung
MDA-MB-231 breast = test system: MDA-MB-231 breast
UACC-62 melanoma = test system: UACC-62 melanoma
IGROV1 ovarian = test system: IGROV1 ovarian
786-0 renal = test system: 786-0 renal
SK-MEL-2 melanoma = test system: SK-MEL-2 melanoma
BT-549 breast = test system: BT-549 breast
HCT-15 colon = test system: HCT-15 colon
PC-3 prostate = test system: PC-3 prostate
CCRF-CEM leukemia = test system: CCRF-CEM leukemia
K-562 leukemia = test system: K-562 leukemia
SNB-75 CNS = test system: SNB-75 CNS
ACHN renal = test system: ACHN renal
A549 NSCLC = test system: A549 NSCLC
EKVX NSCLC = test system: EKVX NSCLC
OVCAR-4 ovarian = test system: OVCAR-4 ovarian
CAKI-1 renal = test system: CAKI-1 renal
TK-10 renal = test system: TK-10 renal
RPMI-8226 leukemia = test system: RPMI-8226 leukemia
SW-620 colon = test system: SW-620 colon
A498 renal = test system: A498 renal
KM12 colon = test system: KM12 colon
SF-268 CNS = test system: SF-268 CNS
SF-539 CNS = test system: SF-539 CNS
MDA-MB-435 = test system: MDA-MB-435
RXF 393 renal = test system: RXF 393 renal
HCC-2998 colon = test system: HCC-2998 colon
SK-MEL-5 melanoma = test system: SK-MEL-5 melanoma
HT29 colon = test system: HT29 colon
HOP-92 NSCLC = test system: HOP-92 NSCLC
SNB-19 CNS = test system: SNB-19 CNS
UO-31 renal = test system: UO-31 renal
OVCAR-8 ovarian = test system: OVCAR-8 ovarian
MOLT-4 leukemia = test system: MOLT-4 leukemia
M14 melanoma = test system: M14 melanoma
U251 CNS = test system: U251 CNS
UACC-257 melanoma = test system: UACC-257 melanoma
MDA-N = test system: MDA-N
SF-295 CNS = test system: SF-295 CNS
HS 578T breast = test system: HS 578T breast
SK-MEL-28 melanoma = test system: SK-MEL-28 melanoma
HCT-116 colon = test system: HCT-116 colon
HL-60(TB) leukemia = test system: HL-60(TB) leukemia
NCI/ADR-RES ovarian = test system: NCI/ADR-RES ovarian

SMILES: O=C(c1no[n+]([O-])c1C(=O)c1csc2ccccc12)c1csc2ccccc12
- TGI (MALME-3M melanoma): 13.5 µM
- TGI (NCI-H226 lung): 35 µM
- TGI (SN12C renal): 12.1 µM
- TGI (NCI-H460 lung): 28.3 µM
- TGI (SK-OV-3 ovarian): 33 µM
- TGI (OVCAR-3 ovarian): 3.78 µM
- TGI (HOP-62 NSCLC): 25.4 µM
- TGI (OVCAR-5 ovarian): 35.4 µM
- TGI (MCF7 breast): 25 µM
- TGI (LOX IMVI melanoma): 5.37 µM
- TGI (SR leukemia): 0.27 µM
- TGI (DU-145 prostate): 32.3 µM
- TGI (NCI-H23 lung): 32 µM
- TGI (COLO 205 colon): 9 µM
- TGI (T-47D breast): 13.7 µM
- TGI (NCI-H522 lung): 0.843 µM
- TGI (MDA-MB-231 breast): 18.4 µM
- TGI (UACC-62 melanoma): 25.7 µM
- TGI (IGROV1 ovarian): 5.69 µM
- TGI (786-0 renal): 0.713 µM
- TGI (SK-MEL-2 melanoma): 20.7 µM
- TGI (BT-549 breast): 19.3 µM
- TGI (HCT-15 colon): 21.7 µM
- TGI (PC-3 prostate): 8.33 µM
- TGI (CCRF-CEM leukemia): 0.267 µM
- TGI (K-562 leukemia): 3.73 µM
- TGI (SNB-75 CNS): 28.5 µM
- TGI (ACHN renal): 16 µM
- TGI (A549 NSCLC): 35.7 µM
- TGI (EKVX NSCLC): 12.5 µM
- TGI (OVCAR-4 ovarian): 7.3 µM
- TGI (CAKI-1 renal): 2.23 µM
- TGI (TK-10 renal): 4.9 µM
- TGI (RPMI-8226 leukemia): 1.95 µM
- TGI (SW-620 colon): 5.85 µM
- TGI (A498 renal): 29.3 µM
- TGI (KM12 colon): 18.7 µM
- TGI (SF-268 CNS): 23.2 µM
- TGI (SF-539 CNS): 8.36 µM
- TGI (MDA-MB-435): 21.5 µM
- TGI (RXF 393 renal): 19.4 µM
- TGI (HCC-2998 colon): 18.4 µM
- TGI (SK-MEL-5 melanoma): 26.1 µM
- TGI (HT29 colon): 13.7 µM
- TGI (HOP-92 NSCLC): 5.01 µM
- TGI (SNB-19 CNS): 32.3 µM
- TGI (UO-31 renal): 1.02 µM
- TGI (OVCAR-8 ovarian): 11.4 µM
- TGI (MOLT-4 leukemia): 3.17 µM
- TGI (M14 melanoma): 22.4 µM
- TGI (U251 CNS): 22.7 µM
- TGI (UACC-257 melanoma): 16.3 µM
- TGI (MDA-N): 21.6 µM
- TGI (SF-295 CNS): 29 µM
- TGI (HS 578T breast): > 57.3 µM
- TGI (SK-MEL-28 melanoma): 11 µM
- TGI (HCT-116 colon): 25.9 µM
- TGI (HL-60(TB) leukemia): 0.0737 µM
- TGI (NCI/ADR-RES ovarian): 56.3 µM
